Experimental data published in ChEMBL document CHEMBL1130807, “The synthesis of symmetrical and unsymmetrical P1/P1' cyclic ureas as HIV protease inhibitors” (Bioorg Med Chem Lett, 1998).
Values after ≈ are worked out from the molar mass of the structure shown.

What was measured:
[1] = molecular target: Human immunodeficiency virus type 1 protease (Human immunodeficiency virus 1, UniProt Q72874); assay: Inhibition of human immunodeficiency virus (HIV) protease isolated enzyme assay
[2] = Antiviral activity was evaluated by whole cell based assay; format: functional
[3] = Solubility in 0.1 N HCl; format: physicochemical; details: read-out: S
[4] = tested on: Human immunodeficiency virus 1; assay: Compound was evaluated for potency against Double mutant HIV I84V/V82F strains; format: functional
[5] = tested on: Human immunodeficiency virus 1; assay: Compound was evaluated for potency against HIV single mutant I84V strain; format: functional
[6] = tested on: Human immunodeficiency virus 1; assay: Compound was evaluated for potency against […] HIV WT strain; format: functional

Row | SMILES | Ki [1] [nM] | IC90 [2] [nM] | solubility [3] [µg/mL] | IC90 [4] [nM] | IC90 [5] [nM] | IC90 [6] [nM]
1 | CC[C@@H]1[C@H](O)[C@@H](O)[C@@H](Cc2ccccc2)N(Cc2cccc(C(=O)Nc3nc4ccccc4[nH]3)c2)C(=O)N1Cc1cccc(C(=O)Nc2nc3ccccc3[nH]2)c1 | 0.069 | 26 | – | – | – | –
2 | Nc1ccc(C[C@@H]2[C@H](O)[C@@H](O)[C@@H](Cc3ccc(N)cc3)N(Cc3cccc(C(=O)Nc4nc5ccccc5[nH]4)c3)C(=O)N2Cc2cccc(C(=O)Nc3nc4ccccc4[nH]3)c2)cc1 | 0.016 | 10 | 8.3 (≈ 9.71 µM) | 76 | 23 | 10
3 | CN(C)c1ccc(C[C@@H]2[C@H](O)[C@@H](O)[C@@H](Cc3ccc(N(C)C)cc3)N(Cc3cccc(C(=O)Nc4nc5ccccc5[nH]4)c3)C(=O)N2Cc2cccc(C(=O)Nc3nc4ccccc4[nH]3)c2)cc1 | 0.038 | 8 | 13.2 (≈ 14.5 µM) | 22 | 8 | 8
4 | CCCCCC[C@@H]1[C@H](O)[C@@H](O)[C@@H](Cc2ccccc2)N(Cc2cccc(C(=O)Nc3nc4ccccc4[nH]3)c2)C(=O)N1Cc1cccc(C(=O)Nc2nc3ccccc3[nH]2)c1 | 0.046 | 9 | 118 (≈ 144 µM) | 24 | 24 | 9
5 | O=C(Nc1nc2ccccc2[nH]1)c1cccc(CN2C(=O)N(Cc3cccc(C(=O)Nc4nc5ccccc5[nH]4)c3)[C@H](C3CCCCC3)[C@H](O)[C@@H](O)[C@H]2C2CCCCC2)c1 | 0.29 | 14 | – | – | – | –
6 | O=C(Nc1nc2ccccc2[nH]1)c1cccc(CN2C(=O)N(Cc3cccc(C(=O)Nc4nc5ccccc5[nH]4)c3)[C@H](Cc3ccc(O)cc3)[C@H](O)[C@@H](O)[C@H]2Cc2ccc(O)cc2)c1 | 0.035 | 35 | – | – | – | –
7 | O=C(Nc1nc2ccccc2[nH]1)c1cccc(CN2C(=O)N(Cc3cccc(C(=O)Nc4nc5ccccc5[nH]4)c3)[C@H](Cc3ccc(OCc4ccccc4)cc3)[C@H](O)[C@@H](O)[C@H]2Cc2ccc(OCc3ccccc3)cc2)c1 | 3.7 | 125 | – | – | – | –
8 | CC[C@@H]1[C@H](O)[C@@H](O)[C@@H](CC)N(Cc2cccc(C(=O)Nc3nc4ccccc4[nH]3)c2)C(=O)N1Cc1cccc(C(=O)Nc2nc3ccccc3[nH]2)c1 | 4.5 | 570 | – | – | – | –
9 | CC(C)C[C@@H]1[C@H](O)[C@@H](O)[C@@H](CC(C)C)N(Cc2cccc(C(=O)Nc3nc4ccccc4[nH]3)c2)C(=O)N1Cc1cccc(C(=O)Nc2nc3ccccc3[nH]2)c1 | 0.3 | 59 | – | 12 | 20 | 26
10 | COc1ccc(C[C@@H]2[C@H](O)[C@@H](O)[C@@H](Cc3ccc(OC)cc3)N(Cc3cccc(C(=O)Nc4nc5ccccc5[nH]4)c3)C(=O)N2Cc2cccc(C(=O)Nc3nc4ccccc4[nH]3)c2)cc1 | 0.026 | 19 | – | – | – | –
11 | CCCCCC[C@@H]1[C@H](O)[C@@H](O)[C@@H](CCCCCC)N(Cc2cccc(C(=O)Nc3nc4ccccc4[nH]3)c2)C(=O)N1Cc1cccc(C(=O)Nc2nc3ccccc3[nH]2)c1 | 0.35 | 86 | – | – | – | –
12 | CC(C)C[C@@H]1[C@H](O)[C@@H](O)[C@@H](Cc2ccccc2)N(Cc2cccc(C(=O)Nc3nc4ccccc4[nH]3)c2)C(=O)N1Cc1cccc(C(=O)Nc2nc3ccccc3[nH]2)c1 | 0.038 | 10 | 160 (≈ 202 µM) | 82 | 9 | 10
13 | O=C(Nc1nc2ccccc2[nH]1)c1cccc(CN2C(=O)N(Cc3cccc(C(=O)Nc4nc5ccccc5[nH]4)c3)[C@H](Cc3ccccc3)[C@H](O)[C@@H](O)[C@H]2Cc2ccccc2)c1 | – | 5 | 0.05 (≈ 0.0606 µM) | 21 | 5 | 5
